Experimental data: article PMC11224111, “Optimizing the pharmacokinetics of an ^211At-labeled RGD peptide with an albumin-binding moiety via the administration of an albumin-binding inhibitor” (European Journal of Nuclear Medicine and Molecular Imaging, 2024)

Test system: U-87 MG tumor-bearing mice
Experiment: Biodistribution in U-87 MG tumor-bearing mice with IPBA
Type: in vivo
Conditions: IPBA 10 eq at 1 h postinjection
Description: To prepare tumor-bearing mice, 5 × 10^6 of U-87 MG cells were subcutaneously inoculated into the right shoulder of 4-week-old female BALB/c nude mice (13–15 g, Japan SLC, Inc.) as previously reported. At approximately 10-day postinoculation of U-87 MG cells, they were used for each experiment after tumor size reached 0.3–0.5 cm^3.
At 1-h postinjection of [^211At]1 (37 kBq) and [^125I]2 (37 kBq), IPBA (1.9 mg, 6.1 µmol) was administered at 10 molar equivalent of blood albumin. Mice were sacrificed at 65-, 70-min, 2-, 4-, 12-, and 24-h postinjection of [^211At]1 and [^125I]2. Tissues of interest were removed and weighed, and radioactivity counts of ^125I and ^211At were determined with an auto well gamma counter (ARC-7010; Hitachi Medical, Ltd., Tokyo, Japan) and corrected for background radiation. To determine the radioactivity excreted from the body for 24 h, mice were housed in metabolic cages (Metabolica, Sugiyama-Gen Co., Ltd., Tokyo, Japan).

- Radioactivity, Bone (65 min after administration): 4.94 (1.52) % injected activity per gram
- Radioactivity, Brain (65 min after administration): 0.31 (0.02) % injected activity per gram
- Radioactivity, Heart (65 min after administration): 4.77 (0.10) % injected activity per gram
- Radioactivity, L. intestine (65 min after administration): 3.10 (0.11) % injected activity per gram
- Radioactivity, Muscle (65 min after administration): 2.62 (0.24) % injected activity per gram
- Radioactivity, Neck (65 min after administration): 0.05 (0.01)^ * % injected activity
- Radioactivity, Pancreas (65 min after administration): 2.66 (0.10) % injected activity per gram
- Radioactivity, Spleen (65 min after administration): 3.95 (0.26) % injected activity per gram
- Radioactivity, Stomach (65 min after administration): 1.33 (0.31) % injected activity
- Radioactivity, Bone (70 min after administration): 2.30 (0.36) % injected activity per gram
- Radioactivity, Brain (70 min after administration): 0.24 (0.04) % injected activity per gram
- Radioactivity, L. intestine (70 min after administration): 2.29 (0.24) % injected activity per gram
- Radioactivity, Muscle (70 min after administration): 1.53 (0.18) % injected activity per gram
- Radioactivity, Neck (70 min after administration): 0.06 (0.01) % injected activity
- Radioactivity, Spleen (70 min after administration): 2.83 (0.36) % injected activity per gram
- Radioactivity, Stomach (70 min after administration): 0.78 (0.15) % injected activity
- Radioactivity, Bone (2 h after administration): 2.73 (0.47) % injected activity per gram
- Radioactivity, Brain (2 h after administration): 0.24 (0.02) % injected activity per gram
- Radioactivity, Kidney (2 h after administration): 8.39 (0.51) % injected activity per gram
- Radioactivity, L. intestine (2 h after administration): 2.48 (1.12) % injected activity per gram
- Radioactivity, Neck (2 h after administration): 0.08 (0.04) % injected activity
- Radioactivity, Pancreas (2 h after administration): 1.68 (0.36) % injected activity per gram
- Radioactivity, S. intestine (2 h after administration): 2.41 (0.71) % injected activity per gram
- Radioactivity, Spleen (2 h after administration): 2.33 (0.14) % injected activity per gram
- Radioactivity, Stomach (2 h after administration): 0.77 (0.08) % injected activity
- Radioactivity, Bone (4 h after administration): 1.46 (0.16) % injected activity per gram
- Radioactivity, Brain (4 h after administration): 0.18 (0.01) % injected activity per gram
- Radioactivity, Heart (4 h after administration): 1.22 (0.12) % injected activity per gram
- Radioactivity, Liver (4 h after administration): 1.32 (0.06) % injected activity per gram
- Radioactivity, Neck (4 h after administration): 0.05 (0.04) % injected activity
- Radioactivity, Pancreas (4 h after administration): 0.72 (0.15) % injected activity per gram
- Radioactivity, S. intestine (4 h after administration): 3.09 (0.79) % injected activity per gram
- Radioactivity, Stomach (4 h after administration): 0.65 (0.09) % injected activity
- Radioactivity, Neck (12 h after administration): 0.06 (0.02)^ * % injected activity
- Radioactivity, Stomach (12 h after administration): 0.39 (0.02)^ ** % injected activity
- Radioactivity, Bone (24 h after administration): 0.48 (0.04) % injected activity per gram
- Radioactivity, Brain (24 h after administration): 0.05 (0.01) % injected activity per gram
- Radioactivity, Heart (24 h after administration): 0.92 (0.58) % injected activity per gram
- Radioactivity, Kidney (24 h after administration): 1.67 (0.24) % injected activity per gram
- Radioactivity, L. intestine (24 h after administration): 0.38 (0.22) % injected activity per gram
- Radioactivity, Lung (24 h after administration): 1.58 (0.42) % injected activity per gram
- Radioactivity, Muscle (24 h after administration): 0.26 (0.02) % injected activity per gram
- Radioactivity, Neck (24 h after administration): 0.03 (0.00) % injected activity
- Radioactivity, Pancreas (24 h after administration): 0.27 (0.05) % injected activity per gram
- Radioactivity, S. intestine (24 h after administration): 0.26 (0.11) % injected activity per gram
- Radioactivity, Stomach (24 h after administration): 0.20 (0.04)^ * % injected activity
- Radioactivity excreted, Feces (until 24 h postinjection): 8.40 (3.14) % injected activity
- Radioactivity excreted, Urine (until 24 h postinjection): 56.09 (4.93)^ ** % injected activity
Substance: Ga-DOTA-K([^125I]IPBA)-c(RGDfK) [[^125I]2]
- Radioactivity, Blood (65 min after administration): 11.19 (0.16)^ ** % injected activity per gram
- Radioactivity, Kidney (65 min after administration): 17.52 (1.13)^ * % injected activity per gram
- Radioactivity, Liver (65 min after administration): 5.29 (0.52)^ * % injected activity per gram
- Radioactivity, Lung (65 min after administration): 10.10 (0.52)^ ** % injected activity per gram
- Radioactivity, S. intestine (65 min after administration): 4.93 (0.21)^ * % injected activity per gram
- Radioactivity, Tumor (65 min after administration): 11.58 (0.32)^ * % injected activity per gram
- Radioactivity, Blood (70 min after administration): 7.91 (0.45)^ *** % injected activity per gram
- Radioactivity, Heart (70 min after administration): 3.25 (0.25)^ ** % injected activity per gram
- Radioactivity, Kidney (70 min after administration): 11.87 (1.35)^ *** % injected activity per gram
- Radioactivity, Liver (70 min after administration): 3.64 (0.49)^ * % injected activity per gram
- Radioactivity, Lung (70 min after administration): 6.75 (0.74)^ ** % injected activity per gram
- Radioactivity, Pancreas (70 min after administration): 1.82 (0.14)^ * % injected activity per gram
- Radioactivity, S. intestine (70 min after administration): 3.77 (0.37)^ ** % injected activity per gram
- Radioactivity, Tumor (70 min after administration): 11.24 (1.19)^ ** % injected activity per gram
- Radioactivity, Blood (2 h after administration): 5.69 (0.44)^ *** % injected activity per gram
- Radioactivity, Heart (2 h after administration): 2.24 (0.23)^ ** % injected activity per gram
- Radioactivity, Liver (2 h after administration): 2.31 (0.17)^ * % injected activity per gram
- Radioactivity, Lung (2 h after administration): 4.74 (0.12)^ * % injected activity per gram
- Radioactivity, Muscle (2 h after administration): 1.73 (0.60)^ * % injected activity per gram
- Radioactivity, Tumor (2 h after administration): 14.36 (1.54)^ ** % injected activity per gram
- Radioactivity, Blood (4 h after administration): 1.71 (0.12)^ ** % injected activity per gram
- Radioactivity, Kidney (4 h after administration): 5.00 (0.36)^ ** % injected activity per gram
- Radioactivity, L. intestine (4 h after administration): 4.61 (1.33)^ ** % injected activity per gram
- Radioactivity, Lung (4 h after administration): 2.31 (0.06)^ *** % injected activity per gram
- Radioactivity, Muscle (4 h after administration): 0.52 (0.05)^ * % injected activity per gram
- Radioactivity, Spleen (4 h after administration): 1.83 (0.10)^ * % injected activity per gram
- Radioactivity, Tumor (4 h after administration): 12.42 (0.89) % injected activity per gram
- Radioactivity, Blood (12 h after administration): 1.65 (0.20)^ *** % injected activity per gram
- Radioactivity, Bone (12 h after administration): 0.72 (0.09)^ * % injected activity per gram
- Radioactivity, Brain (12 h after administration): 0.07 (0.01)^ ** % injected activity per gram
- Radioactivity, Heart (12 h after administration): 1.02 (0.07)^ ** % injected activity per gram
- Radioactivity, Kidney (12 h after administration): 2.71 (0.17)^ *** % injected activity per gram
- Radioactivity, L. intestine (12 h after administration): 0.75 (0.05)^ *** % injected activity per gram
- Radioactivity, Liver (12 h after administration): 0.70 (0.08)^ *** % injected activity per gram
- Radioactivity, Lung (12 h after administration): 2.07 (0.11)^ *** % injected activity per gram
- Radioactivity, Muscle (12 h after administration): 0.37 (0.01)^ *** % injected activity per gram
- Radioactivity, Pancreas (12 h after administration): 0.50 (0.02)^ ** % injected activity per gram
- Radioactivity, S. intestine (12 h after administration): 0.68 (0.10)^ *** % injected activity per gram
- Radioactivity, Spleen (12 h after administration): 1.03 (0.05)^ ** % injected activity per gram
- Radioactivity, Tumor (12 h after administration): 7.08 (0.74)^ ** % injected activity per gram
- Radioactivity, Blood (24 h after administration): 1.55 (0.17)^ * % injected activity per gram
- Radioactivity, Liver (24 h after administration): 0.56 (0.10)^ * % injected activity per gram
- Radioactivity, Spleen (24 h after administration): 0.72 (0.16)^ * % injected activity per gram
- Radioactivity, Tumor (24 h after administration): 5.51 (0.05)^ * % injected activity per gram
